The target in this experiment is human HPK1 (MAP4K1) (Homo sapiens (Human), UniProt Q92918). Kind of experiment: HPK1 IC50 Assay (TR-FRET peptide phosphorylation). The class given is biochemical. The conditions noted are these: recombinant HPK1 kinase domain 0.15 nM, 10 μM ATP, 1 μM STK S1 peptide; geometric mean of multiple experiments. The gist of the method:
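Pre-activated, dually phosphorylated baculovirus-expressed HPK1 kinase domain (0.15 nM) preincubated 15 min with compound, then reacted 3 h at 25° C with 10 μM ATP and 1 μM STK S1 peptide in BES pH 7.0 buffer. Phosphopeptide read by TR-FRET (665/620 nm); four-parameter fit, geometric-mean IC50.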
Sequence of human HPK1 (MAP4K1) (Q92918 17-274): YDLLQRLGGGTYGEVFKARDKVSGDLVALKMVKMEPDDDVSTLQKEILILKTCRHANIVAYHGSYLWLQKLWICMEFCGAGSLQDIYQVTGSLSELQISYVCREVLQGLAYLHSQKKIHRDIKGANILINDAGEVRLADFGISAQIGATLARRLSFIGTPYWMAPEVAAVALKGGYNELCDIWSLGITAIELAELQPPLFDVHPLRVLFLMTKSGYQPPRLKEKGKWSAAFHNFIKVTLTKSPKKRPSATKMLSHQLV
For `CNC(=O)c1cc(Nc2nc(-c3ccc4c(c3)N([C@H]3C[C@@H](N5CCC[C@@H](F)C5)C3)C(=O)C43CCN(C(C)=O)CC3)cc3ncn(C(C)C)c23)ccc1C` [Example 162], the IC50 was determined as 0.1 nM.
Regarding `CNC(=O)c1cc(Nc2nc(-c3ccc4c(c3)N([C@H]3C[C@@H](N5CCCC6(C5)CC6(F)F)C3)C(=O)C43CCN(C(C)=O)CC3)cc3ncn(C4CC4)c23)ccc1C` (some centres unmarked) [Example 163], the IC50 stood at 0.1 nM.
Under `CNC(=O)c1cc(Nc2nc(-c3ccc4c(c3)N([C@H]3C[C@@H](N5CCC6(C5)CC6(F)F)C3)C(=O)C43CCN(C(C)=O)CC3)cc3ncn(C(C)C)c23)ccc1C` (some centres unmarked) [Example 164] stands 0.2 nM; under `CNC(=O)c1cc(Nc2nc(-c3ccc4c(c3)N([C@H]3C[C@@H](N5CCC(C)(C)C5)C3)C(=O)C43CCN(C(C)=O)CC3)cc3ncn(C(C)C)c23)ccc1C` [Example 165], 0.1 nM; under `CNC(=O)c1cc(Nc2nc(-c3ccc4c(c3)N([C@H]3C[C@@H](N5CCCC6(CC6)C5)C3)C(=O)C43CCN(C(C)=O)CC3)cc3ncn(C4CC4)c23)ccc1C` [Example 166], 0.1 nM.
The result for `CNC(=O)c1cc(Nc2nc(-c3ccc4c(c3)N([C@H]3C[C@@H](N5CCCCC5)C3)C(=O)C43CCN(S(=O)(=O)C4CC4)CC3)cc3ncn(C4CC4)c23)ccc1C` [Example 167] reads 0.1 nM; that for `CNC(=O)c1cc(Nc2nc(-c3ccc4c(c3)N([C@H]3C[C@@H](N5CCCCC5)C3)C(=O)C43CCN(S(C)(=O)=O)CC3)cc3ncn(C4CC4)c23)ccc1C` [Example 168], 0.1 nM; that for `CC[C@H](C)n1cnc2cc(-c3ccc4c(c3)N([C@H]3C[C@@H](N5CCCCC5)C3)C(=O)C43CCN(C(=O)OC)CC3)nc(Nc3ccc(C)c(C(=O)NC)c3)c21` [Example 169], 0.1 nM.
Under `CNC(=O)c1cc(Nc2nc(-c3ccc4c(c3)N([C@H]3C[C@@H](N5CCC[C@@H](F)C5)C3)C(=O)C43CCN(C4COC4)CC3)cc3ncn(C(C)C)c23)c(F)cc1C` [Example 170, 4-fluoro-5-((6-(1-((1S,3s)-3-((R)-3-fluoropiperidin-1-yl)cyclobutyl)-1′-(oxetan-3-yl)-2-oxospiro[indoline-3,4′-piperidin]-6-yl)-3-isopropyl-3H-imidazo[4,5-c]pyridin-4-yl)amino)-N,2-dimethylbenzamide] stands 0.8 nM.
As for `CCNC(=O)c1cc(Nc2nc(-c3ccc4c(c3)N([C@H]3C[C@@H](N5CCC[C@@H](F)C5)C3)C(=O)C43CCN(C4COC4)CC3)cc3ncn(C(C)C)c23)c(F)cc1C` [Example 171], the IC50 was 0.2 nM.
Under `Cc1cc(F)c(Nc2nc(-c3ccc4c(c3)N([C@H]3C[C@@H](N5CCC[C@@H](F)C5)C3)C(=O)C43CCN(C4COC4)CC3)cc3ncn(C(C)C)c23)cc1C(=O)NC(C)C` [Example 172] stands 0.3 nM; under `CNC(=O)c1cc(Nc2nc(-c3ccc4c(c3)N([C@H]3C[C@@H](N5CCCCC5)C3)C(=O)C43CCN(C4COC4)CC3)cc3ncn(C4CC4)c23)ccc1C` [Example 173], 0.08 nM.
Under `Cc1ccc(Nc2nc(-c3ccc4c(c3)N([C@H]3C[C@@H](N5CCCCC5)C3)C(=O)C4(C)C)cc3ncn(C(C)C)c23)cc1C(=O)NC1(CF)CC1` [Example 174, 5-((6-(3,3-dimethyl-2-oxo-1-((1s,3s)-3-(piperidin-1-yl)cyclobutyl)indolin-6-yl)-3-isopropyl-3H-imidazo[4,5-c]pyridin-4-yl)amino)-N-(1-(fluoromethyl)cyclopropyl)-2-methylbenzamide] stands 0.09 nM.
On to `CNC(=O)c1cc(Nc2nc(-c3ccc4c(c3)N([C@H]3C[C@@H](N5CCCCC5)C3)C(=O)C4(C)C)cc3ncn(C(C)C)c23)c(F)cc1C` [Example 175], for which the IC50 is 0.1 nM.
Under `Cc1cc(F)c(Nc2nc(-c3ccc4c(c3)N([C@H]3C[C@@H](N5CCCCC5)C3)C(=O)C4(C)C)cc3ncn(C(C)C)c23)cc1C(=O)NC(C)C` [Example 176] stands 0.2 nM; under `CNC(=O)c1cc(Nc2nc(-c3ccc4c(c3)N([C@H]3C[C@@H](N5CCCCC5)C3)C(=O)C43CN(C(C)=O)C3)cc3ncn(C(C)C)c23)c(F)cc1C` [Example 177], 0.4 nM; under `CCNC(=O)c1cc(Nc2nc(-c3ccc4c(c3)N([C@H]3C[C@@H](N5CCCCC5)C3)C(=O)C43CN(C(C)=O)C3)cc3ncn(C(C)C)c23)c(F)cc1C` [Example 178], 0.3 nM.
The result for `CC(=O)N1CC2(C1)C(=O)N([C@H]1C[C@@H](N3CCCCC3)C1)c1cc(-c3cc4ncn(C(C)C)c4c(Nc4cc(C(=O)NC(C)C)c(C)cc4F)n3)ccc12` [Example 179] reads 1.1 nM; that for `CC(=O)N1CCC2(CC1)C(=O)N([C@H]1C[C@@H](N3CCCCC3)C1)c1cc(-c3cc4ncn(C(C)C)c4c(Nc4cc(C(=O)NC(C)C)c(F)cc4F)n3)ccc12` [Example 180], 0.2 nM; that for `CNC(=O)c1cc(Oc2nc(-c3ccc4c(c3)N([C@H]3C[C@@H](N5CCC(C)(C)C5)C3)C(=O)C43CCN(C(C)=O)CC3)cc3ncn(C(C)C)c23)ccc1C` [Example 181], 0.2 nM.
With `CNC(=O)c1cc(Nc2nc(-c3ccc4c(c3)N([C@H]3C[C@@H](N5CCCCC5)C3)C(=O)C4(C)C)cc3ncn(C(C)C)c23)c(F)cc1F` [Example 182], the IC50 worked out at 0.2 nM.
Under `Cc1ccc(Nc2nc(-c3ccc4c(c3)N([C@H]3C[C@@](C)(N5CCCCC5)C3)C(=O)C4(C)C)cc3ncn(C4CC4)c23)cc1C(N)=O` [Example 183, 5-((3-cyclopropyl-6-(3,3-dimethyl-1-((1s,3s)-3-methyl-3-(piperidin-1-yl)cyclobutyl)-2-oxoindolin-6-yl)-3H-imidazo[4,5-c]pyridin-4-yl)amino)-2-methylbenzamide] stands 0.05 nM; under `Cc1ccc(Nc2nc(-c3ccc4c(c3)N([C@H]3C[C@@H](N5CCCCC5)C3)C(=O)C4(F)F)cc3ncn(C4CC4)c23)cc1C(N)=O` [Example 184], 0.9 nM.
The result for `Cc1c(C(=O)NC2(C(F)F)CC2)cc(Nc2nc(-c3cnc4c(c3)N([C@H]3C[C@@](C)(N5CCCCC5)C3)C(=O)C4(C)C)cc3ncn(C(C)C)c23)c(F)c1F` [Example 185, N-(1-(difluoromethyl)cyclopropyl)-5-((6-(3,3-dimethyl-1-((1s,3s)-3-methyl-3-(piperidin-1-yl)cyclobutyl)-2-oxo-2,3-dihydro-1H-pyrrolo[3,2-b]pyridin-6-yl)-3-isopropyl-3H-imidazo[4,5-c]pyridin-4-yl)amino)-3,4-difluoro-2-methylbenzamide] reads 0.1 nM; that for `Cc1c(C(=O)NC2(CF)CC2)cc(Nc2nc(-c3cnc4c(c3)N([C@H]3C[C@@](C)(N5CCCCC5)C3)C(=O)C4(C)C)cc3ncn(C(C)C)c23)c(F)c1F` [Example 186, 5-((6-(3,3-Dimethyl-1-((1s,3s)-3-methyl-3-(piperidin-1-yl)cyclobutyl)-2-oxo-2,3-dihydro-1H-pyrrolo[3,2-b]pyridin-6-yl)-3-isopropyl-3H-imidazo[4,5-c]pyridin-4-yl)amino)-3,4-difluoro-N-(1-(fluoromethyl)cyclopropyl)-2-methylbenzamide], 0.07 nM; that for `Cc1c(C(=O)NC2(C(F)F)CC2)cc(Nc2nc(-c3cnc4c(c3)N([C@H]3C[C@@](C)(N5CCC(F)C6(CC6)C5)C3)C(=O)C4(C)C)cc3ncn(C(C)C)c23)c(F)c1F` (some centres unmarked) [Example 187, N-(1-(Difluoromethyl)cyclopropyl)-3,4-difluoro-5-((6-(1-((1s,3s)-3-(8-fluoro-5-azaspiro[2.5]octan-5-yl)-3-methylcyclobutyl)-3,3-dimethyl-2-oxo-2,3-dihydro-1H-pyrrolo[3,2-b]pyridin-6-yl)-3-isopropyl-3H-imidazo[4,5-c]pyridin-4-yl)amino)-2-methylbenzamide], 0.2 nM.
Regarding `Cc1c(C(=O)NC2(C(F)F)CC2)cc(Nc2nc(-c3cnc4c(c3)N([C@H]3C[C@@](C)(N5CCOC(C)(C)C5)C3)C(=O)C4(C)C)cc3ncn(C(C)C)c23)c(F)c1F` [Example 188, N-(1-(Difluoromethyl)cyclopropyl)-5-((6-(1-((1s,3s)-3-(2,2-dimethylmorpholino)-3-methylcyclobutyl)-3,3-dimethyl-2-oxo-2,3-dihydro-1H-pyrrolo[3,2-b]pyridin-6-yl)-3-isopropyl-3H-imidazo[4,5-c]pyridin-4-yl)amino)-3,4-difluoro-2-methylbenzamide], the IC50 was found to be 0.4 nM.
Take `Cc1c(C(=O)NC2(C(F)F)CC2)cc(Nc2nc(-c3cnc4c(c3)N([C@H]3C[C@@](C)(N5C[C@H]6COC[C@H]6C5)C3)C(=O)C4(C)C)cc3ncn(C(C)C)c23)c(F)c1F` [Example 189, N-(1-(Difluoromethyl)cyclopropyl)-5-((6-(3,3-dimethyl-1-((1S,3s)-3-methyl-3-((3 aR,6aS)-tetrahydro-1H-furo[3,4-c]pyrrol-5(3H)-yl)cyclobutyl)-2-oxo-2,3-dihydro-1H-pyrrolo[3,2-b]pyridin-6-yl)-3-isopropyl-3H-imidazo[4,5-c]pyridin-4-yl)amino)-3,4-difluoro-2-methylbenzamide]: the concentration for half-maximal inhibition (IC50) was 0.2 nM.
The result for `Cc1c(C(=O)NC2(C(F)F)CC2)cc(Nc2nc(-c3cnc4c(c3)N(C3CC(C)(N5CCC6C[C@H]5CO6)C3)C(=O)C4(C)C)cc3ncn(C(C)C)c23)c(F)c1F` (some centres unmarked) [Example 191, 5-((6-(1-((1s,3s)-3-(6-oxa-2-azabicyclo[3.2.1]octan-2-yl)-3-methylcyclobutyl)-3,3-dimethyl-2-oxo-2,3-dihydro-1H-pyrrolo[3,2-b]pyridin-6-yl)-3-isopropyl-3H-imidazo[4,5-c]pyridin-4-yl)amino)-N-(1-(difluoromethyl)cyclopropyl)-3,4-difluoro-2-methylbenzamide] reads 0.09 nM.

(Values after patent US11203591B2, “Substituted 6-azabenzimidazole compounds” (Gilead Sciences, Inc., priority 2018, dated 2021).)
